BindingDB's records for doi:10.1021/jm00011a006 (University of Minnesota, 1995)

Target: Aldehyde dehydrogenase (Saccharomyces cerevisiae)
Experiment: In vitro inhibition against yeast Aldehyde dehydrogenase

IC50	Structure (SMILES)
56 µM	CCOC(=O)ON1C(=O)c2ccccc2S1(=O)=O [Carbonic acid ethyl ester 1,1,3-trioxo-1,3-dihydro-1lambda*6*-benzo[d]isothiazol-2-yl ester]
270 µM	CCOC(=O)On1nnc2ccccc21 [Carbonic acid benzotriazol-1-yl ester ethyl ester]
24 µM	CCOC(=O)ON(C(=O)OCC)S(=O)(=O)c1ccc(Cl)cc1 [ethyl (4-chlorophenyl)sulfonyl[(ethoxycarbonyl)oxy]carbamate]
